Reference: paper PMC3956282, “Binding Stoichiometry of a Recombinant Selenophosphate Synthetase with One Synonymic Substitution E197D to a Fluorescent Nucleotide Analog of ATP, TNP-ATP” (Journal of Amino Acids, 2013)

Molecular target: T1, selenophosphate synthetase (SPS) (Escherichia coli, UniProt P16456, E197D)
T1 construct: gene selD; full-size selD from E. coli BL21-Gold (DE3), recombinant
Experiment: competitive displacement of TNP-ATP (fluorescence)
Assay type: binding

T1 sequence (P16456 whole entry E197D): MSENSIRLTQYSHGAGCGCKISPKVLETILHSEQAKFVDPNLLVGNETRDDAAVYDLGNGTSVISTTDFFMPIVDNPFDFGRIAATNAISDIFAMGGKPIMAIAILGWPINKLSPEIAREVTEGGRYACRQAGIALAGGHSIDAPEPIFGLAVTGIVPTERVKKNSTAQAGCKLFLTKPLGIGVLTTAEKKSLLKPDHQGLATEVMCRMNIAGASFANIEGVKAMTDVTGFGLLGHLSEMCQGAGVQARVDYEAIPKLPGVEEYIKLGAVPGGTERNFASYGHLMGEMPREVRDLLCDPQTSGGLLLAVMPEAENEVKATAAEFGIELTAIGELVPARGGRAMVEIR

SMILES: Nc1ncnc2c1ncn2[C@@H]1O[C@H](COP(=O)(O)OP(=O)(O)OP(=O)(O)O)[C@@H](O)[C@H]1O [ATP]
- EC50: 450 µM
